{
  "source": "ChEMBL document CHEMBL3217537",
  "about": "“The importance of solvation in the design of ligands targeting membrane proteins” (Medchemcomm, 2011)",
  "target": "5-hydroxytryptamine receptor 4 (Rattus norvegicus, UniProt Q62758)",
  "sequence (Q62758 whole entry)": "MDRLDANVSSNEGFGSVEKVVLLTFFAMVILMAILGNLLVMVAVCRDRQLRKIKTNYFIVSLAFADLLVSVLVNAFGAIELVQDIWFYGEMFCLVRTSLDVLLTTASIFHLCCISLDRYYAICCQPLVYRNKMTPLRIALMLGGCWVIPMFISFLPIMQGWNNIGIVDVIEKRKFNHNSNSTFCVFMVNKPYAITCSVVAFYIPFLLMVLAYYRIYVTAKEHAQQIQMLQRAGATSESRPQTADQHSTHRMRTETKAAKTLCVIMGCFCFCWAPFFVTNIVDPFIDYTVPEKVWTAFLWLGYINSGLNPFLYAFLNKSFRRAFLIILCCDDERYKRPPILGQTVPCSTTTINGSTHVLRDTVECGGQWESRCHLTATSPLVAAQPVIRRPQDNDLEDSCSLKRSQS",
  "assay": "Displacement of [3H]GR113808 from 5-HT4 receptor in rat striatal membranes after 30 mins by liquid scintillation spectrometric analysis",
  "format": "cell membranes, Striatum, Membrane",
  "data": [
    {"smiles": "CCCCN1CCC(CNC(=S)c2cccc3[nH]cnc23)CC1", "values": [
      {"measurement": "Ki", "value": 0.15, "unit": "nM"}
    ]},
    {"smiles": "CCCCN1CCC(CNC(=S)c2cc(Cl)cc3[nH]cnc23)CC1", "values": [
      {"measurement": "Ki", "value": 0.081, "unit": "nM"}
    ]}
  ]
}
